# Assay results taken from patent US11028077B2, “Crystalline pharmaceutical and methods of preparation and use thereof” (NOVARTIS PHARMACEUTICALS CORPORATION, priority 2008, dated 2021).
# Read-outs that look alike come from different tables or passages of the source.
# Legend:
# mini-pigs = assay: Pilot mini-pig dermal study
# rabbits = assay: 13-week ocular toxicity study in rabbits with 4-week recovery (toxicity and TK); conditions: rabbits (3%)
# [1] = tested on: attachment of Jurkat cells to ICAM-1; assay: T-cell adhesion assay using Jurkat cells; format: cell-based, human
# Protocol: A reported LFA-1 antagonist was used as the positive control.
# Jurkat cells were labeled with an 8 μM solution of BCECF-AM (2′,7′-bis-(2-carboxyethyl)-5-(and-6)-carboxyfluorescein) in growth media at room temperature for 15 minutes. […] Non-adherent cells were removed by washing and centrifugation at 100 g for 1 minute. Adherent cells were determined as adherent fluorescent units on a fluorescent plate reader.
# [2] = tested on: cell attachment and SEB IL-2 release; assay: cells; format: cell-based
# [3] = Rat ocular pharmacokinetics of [14C]-compound (ocular tissue levels); format: in vivo; conditions: rat, for 16 hrs
# [4] = Plasma PK after single IV bolus dose in rats; format: in vivo, rat
# rats [5] = assay: 13-week IV toxicity study in rats with 4-week recovery (toxicity and plasma exposure); format: in vivo, rat
# [6] = tested on: human mononuclear cells (PBMC) stimulated with staphylococcal enterotoxin B (SEB); assay: cells; format: cell-based
# dogs (beagles) = assay: Cardiovascular effects in conscious telemetry-instrumented dogs, IV bolus; format: in vivo, dog; conditions: IV bolus injection
# [7] = tested on: HuT 78 cell adhesion to 5dICAM-Ig; assay: Human T-cell adhesion assay (HuT 78 cell adhesion to 5dICAM-Ig); format: cell-based; conditions: HuT78, HuT 78 cells, read-out: EC50, inhibition of T-cell adhesion
# Protocol: The T-cell adhesion assay was performed using the human T-lymphoid cell line HuT 78 (ATCC TIB-161). Goat anti-HuIgG(Fc) was diluted to 2 μg/ml in PBS and 96-well plates were coated with 50 μl/well at 37° C. for 1 h. Plates were washed with PBS and blocked for 1 h at room temperature with 1% BSA in PBS. 5 domain ICAM-Ig was diluted to 100 ng/ml in PBS and 50 μl/well was added to the plates O/N at 4° C. HuT 78 cells were centrifuged at 100 g and the cell pellet was treated with 5 mM EDTA for ˜5′ at 37° C. in a 5% CO2 incubator. Cells were washed in 0.14 M NaCl, 0.02 M Hepes, 0.2% glucose and 0.1 mM MnCl2 (assay buffer) and centrifuged. The cells were resuspended in assay buffer to 3.0×10^6 c/ml Inhibitors were diluted in assay buffer to a 2× final concentration and pre-incubated with HuT78 cells for 30′ at room temperature. 100 μl/well of cells and inhibitors were added to the plates and incubated at room temperature for 1 h. 100 μl/well PBS was added and the plates were sealed and centrifuged inverted at 100 g for 5′. Unattached cells were flicked out of the plate and excess PBS was blotted on a paper towel. […] The enzyme reaction was stopped with […] 50 mM glycine/5 mM EDTA and read on a platereader at […]. HUT 78 cell adhesion to 5dICAM-Ig was measured using the p-nitrophenyl n-acetyl-f3-D-glucosaminide method of Landegren, U. (1984). […]
# [8] = Phase 1 clinical trial, plasma PK analysis; format: in vivo, human
# Protocol: Samples were also obtained at 48 hours post dose on Days 1, 14 and 27 and a single blood sample was collected at the follow-up visit at the end of the study.
# rats [9] = assay: Respiratory function in rats, single IV bolus, head-out plethysmograph; format: in vivo, rat; conditions: any dose
# rats [10] = assay: Pilot rat dermal study; format: in vivo; conditions: 1% lotion, ointment, gel, DMSO; TID seven days, 10 mg/cm^2
# Protocol: The safety and tolerability of prototypical dermal formulations (1% lotion, ointment, and gel) were assessed on rats given TID for seven consecutive days—approximately 6 cm^2 with 10 mg/cm^2.
# dogs [11] = assay: 13-week ocular toxicity study in dogs with 4-week recovery (toxicity and TK); conditions: dogs (3%)
# rats [12] = assay: CNS effects in rats, single bolus IV injection; format: in vivo, rat; conditions: 10.0 mg/kg IV, 1 minute to 6 hours postdose, 2/6 animals at each time point
# Text: No effect on any other parameters was observed.
# [13] = Single dose ADME study with [14C]-compound in dogs; format: in vivo; conditions: dog, for 16 hrs
# Text: No differences in results from male and female dogs were observed.
# dogs [14] = assay: Acute toxicity, escalating single dose IV and 7-day repeated dose with TK in dogs; format: in vivo, dog; conditions: escalating single dose IV and 7-day repeated dose
# Protocol: 4. Acute Toxicity Studies: For single dose IV in rats, the no observable adverse effect level (NOAEL) was 10 mg/kg IV. For escalating single dose IV and 7-day repeated dose with TK (toxicokinetics) in dogs, the NOAEL was 10 mg/kg IV. For single dose ocular tolerance in rabbits, the NOAEL was 3.5 mg/eye/3× per day (10%).
# [15] = single IV bolus 30.0 mg/kg, from rat safety pharmacology study
# [16] = daily IV bolus 3 mg/kg, Week 13
# [17] = daily IV bolus 10 mg/kg, Week 13
# [18] = daily IV bolus 30 mg/kg, Week 13
compound,measurement,setting,value
CS(=O)(=O)c1cccc(C[C@H](NC(=O)c2c(Cl)cc3c(c2Cl)CCN(C(=O)c2ccc4ccoc4c2)C3)C(=O)O)c1 [compound of Formula I],toxicity,"mini-pigs; DMSO, gel, ointment, lotion at 1%, dermal TID for 7 days, 10 mg/cm^2",No toxicity
same,plasma level,"mini-pigs; all groups, below the LLOQ",< 0.5 ng/mL
same,NOAEL,rabbits,1.05 mg/eye/3× per day
same,Jurkat cell attachment to ICAM-1,[1],inhibition of Jurkat cell attachment with increasing dose
same,dose response curve and IC50,"[1]; compared with positive control, a reported LFA-1 antagonist",comparable to that of the known direct competitive LFA-1 antagonist
same,IC50,[2],2 nM
same,levels in conjunctiva/cornea,[3],> 100 nM
same,AUC0-n,[4]; single IV bolus 10.0 mg/kg,728 ng·h/mL
same,CL,[4]; single IV bolus 10.0 mg/kg,10.4 L/h/kg
same,Cmax,[4]; single IV bolus 10.0 mg/kg,1056 ng/mL
same,MRT,[4]; single IV bolus 10.0 mg/kg,55.2 min
same,T1/2,[4]; single IV bolus 10.0 mg/kg,3.76 h
same,Vss,[4]; single IV bolus 10.0 mg/kg,9.56 L/kg
same,AUC0-n,[4]; [15],2345.5 ng·h/mL
same,Cmax,[4]; [15],5117.3 ng/mL
same,AUC0-n,"rats [5]; daily IV bolus 3 mg/kg, Day 1",148.3 ng·h/mL
same,Cmax,"rats [5]; daily IV bolus 3 mg/kg, Day 1",305.2 ng/mL
same,AUC0-n,rats [5]; [16],241.4 ng·h/mL
same,Cmax,rats [5]; [16],377.5 ng/mL
same,AUC0-n,"rats [5]; daily IV bolus 10 mg/kg, Day 1",535.6 ng·h/mL
same,Cmax,"rats [5]; daily IV bolus 10 mg/kg, Day 1",1045.3 ng/mL
same,AUC0-n,rats [5]; [17],907.1 ng·h/mL
same,Cmax,rats [5]; [17],1691.5 ng/mL
same,AUC0-n,"rats [5]; daily IV bolus 30 mg/kg, Day 1",2345.5 ng·h/mL
same,Cmax,"rats [5]; daily IV bolus 30 mg/kg, Day 1",5117.3 ng/mL
same,AUC0-n,rats [5]; [18],7471.5 ng·h/mL
same,Cmax,rats [5]; [18],16932.8 ng/mL
same,EC50,[6],≤ 0.15 µM
same,EC50,[6]; read-out: EC50 Cytokine Release GM-CSF,0.545 µM
same,EC50,[6]; read-out: EC50 Cytokine Release IFNγ,0.0016 µM
same,EC50,[6]; read-out: EC50 Cytokine Release IL-1α,0.24 µM
same,EC50,[6]; read-out: EC50 Cytokine Release IL-1β,0.36 µM
same,EC50,[6]; read-out: EC50 Cytokine Release IL-2,0.0018 µM
same,EC50,[6]; read-out: EC50 Cytokine Release IL-3,52.2 µM
same,EC50,[6]; read-out: EC50 Cytokine Release IL-4,0.143 µM
same,EC50,[6]; read-out: EC50 Cytokine Release IL-5,0.11 µM
same,EC50,[6]; read-out: EC50 Cytokine Release IL-6,43.5 µM
same,EC50,[6]; read-out: EC50 Cytokine Release IL-10,0.147 µM
same,EC50,[6]; read-out: EC50 Cytokine Release IL-12p40,> 1000 µM
same,EC50,[6]; read-out: EC50 Cytokine Release IL-13,0.36 µM
same,EC50,[6]; read-out: EC50 Cytokine Release IP-10,1.16 µM
same,EC50,[6]; read-out: EC50 Cytokine Release MCP-1,0.005 µM
same,EC50,[6]; read-out: EC50 Cytokine Release MIP-1α,0.02 µM
same,EC50,[6]; read-out: EC50 Cytokine Release TNF-α,0.076 µM
same,effects on electrocardiography or hemodynamic parameters,dogs (beagles),No effects on electrocardiography or hemodynamic parameters
same,EC50,[7],< 50 nM
same,plasma concentration,"[8]; 0.1% dose strength, single and multiple doses, all timepoints (BLOQ)",< 0.500 ng/mL
same,plasma concentration,"[8]; 0.3% dose strength, single and multiple doses, all timepoints (BLOQ)",< 0.500 ng/mL
same,plasma concentration,"[8]; 1% dose strength, 3 of 5 subjects (BLOQ)",< 0.500 ng/mL
same,plasma concentration,"[8]; 5% dose strength, generally not detectable after the first hour",< 3 ng/mL
same,"respiratory function (tidal volume, respiration rate, minute volume)",rats [9],No adverse changes in respiratory function or adverse effects
same,serum level,rats [10],detectable in serum
same,NOAEL,dogs [11],1.05 mg/eye/3× per day
same,CNS observation,rats [12],Transient miosis
same,levels in conjunctiva/cornea,[13],greater than 1 micromolar
same,NOAEL,dogs [14],10 mg/kg
